{"source": "paper PMC10553834", "about": "“Differentiating the roles of Mycobacterium tuberculosis substrate binding proteins, FecB and FecB2, in iron uptake” (PLOS Pathogens, 2023)", "biological_target": "FecB E339S (Mycobacterium tuberculosis, UniProt O53291, E339S)", "type": "binding", "data": [{"substance": "carboxymycobactin [apo-cMB]", "values": [{"measurement": "Fold-decrease", "value": "~1.7"}, {"measurement": "Kd", "value": "4.8 ± 0.3", "unit": "µM"}]}]}
